According to patent publication EP0198765A2, “Preparation of liposomes” (GEORGETOWN UNIVERSITY, priority 1985, dated 1986):

What was measured:
[1] = Percentage of entrapment of drugs in liposomes, determined by fluorescence after dialysis; assay type: physicochemical; conditions: liposomes of cardiolipin, phosphatidyl choline, cholesterol, stearylamine-DTPA
Method: For the preparation of liposomes, 6 mg of doxorubicin or daunorubicin was added to 9 mg of cardiolipin solution and evaporated to dryness under N2. To this dried mixture were then added 22.5 mg of phosphatidyl choline, 7.5 mg cholesterol and 3 mg of stearylamine-DTPA. Again, the mixture was evaporated to dryness under N2.
The dried lipids and doxorubicin or daunorubicin were resuspended in 6 ml of 0.01 M phosphate buffer with 0.85% NaCl, pH 7.4 (PBS). After one-half-hour swelling time, the liposomes were stirred for 15 minutes, followed by sonication (Heat System, Model W-220F) in a fixed temperature bath at 37°C for 90 minutes. The non-entrapped doxorubicin or daunorubicin was separated from liposome-encapsulated drug by extensive dialysis against 0.001 M phosphate buffer with 0.85% NaCl, pH 7.4 at 4°C over a period of 20 hours with at least two changes of buffer solutions (250 ml/ml liposomes). […] The difference in encapsulation of these two drugs relates to their lipophilicity; daunorubicin is more lipophilic than doxorubicin. The liposomes were freshly prepared each day and were diluted with 0.01 M phosphate buffer (PBS) so as to administer doses of doxorubicin or daunorubicin equivalent to doses of free drugs for pharmacological, toxicological and therapeutic studies.

[2] = Plasma levels in mice after i.v. administration of free or liposome-entrapped drug; conditions: 6 mg/kg i.v.
Method: (§1) Male CDF1 mice weighing 20-25 g were used to evaluate the influence of liposome encapsulation on plasma levels and physiological disposition of daunorubicin and doxorubicin. Free or encapsulated daunorubicin or doxorubicin was administered intravenously via a lateral tail vein at a dose of 6 mg/kg at 2% body weight (0.02 ml/gm). At 5, 15, 30, 60, 120, 240, and 480 minutes and at 24 hours, mice in each group were bled from the orbital sinus. Blood was collected in heparinized tubes and centrifuged at 1500 rpm for 10 minutes. The plasma layer was separated and frozen. Mice were then killed by cervical dislocation, and the liver, kidney, heart, spleen, small intestine and lungs were excised, rinsed in normal saline, and stored at -20°C until assayed.
(§2) Plasma and tissues were analyzed for drug equivalents by the method of Formelli et al. (Cancer Chemotherapy and Pharmacology, 5, 129-144 (1981)) as modified in the inventor's laboratories. Plasma (0.25 ml) was diluted to 1 ml with distilled water, followed by addition of 0.2 ml of AgN03 (33% wt/vol). Tissues were homogenized in 1 ml of water in a polytron homogenizer. […] The butanol extract was read in a spectrofluorometer at 470 nm excitation and 585 nm emission. Control plasma and tissues obtained from mice treated with blank liposomes were treated the same way and read in the fluorometer to correct for any endogenous fluorescence. […]

[3] = Tissue disposition (heart, liver, spleen, lungs, kidney, intestine) in mice after i.v. administration; conditions: doxorubicin 6 mg/kg i.v., CDF1 mice; at 15 minutes
Method: as §1, §2

[4] = Lethal toxicity in normal mice; assay type: in vivo; conditions: 20 mg/kg intraperitoneally, normal CDF1 mice, by day 10
Method: For comparison of lethal toxicity of free doxorubicin and doxorubicin entrapped in liposomes, normal CDF1 mice were administered a dose of 20 mg/kg intraperitonally. The mice were observed until day 80 post-drug administration. The control mice received blank liposomes representing the same concentration of the lipid used to entrap a dose of 20 mg/kg of doxorubicin. Mice in each group were weighed twice weekly and were observed daily.

[5] = system: P388 leukemia; test: Antitumor studies against P388 leukemia in mice (median survival time, T/c); assay type: in vivo, CDF1 mice; conditions: 24 hours after i.p. implant of 1x10^6 P388 cells, Treated/Control x 100
Method: To investigate the therapeutic effectiveness of doxorubicin and daunorubicin entrapped in liposomes, antitumor studies were performed against P388 leukemia in CDF1 mice. Groups of ten mice were implanted intraperitoneally with lxl0^6 cells of P388 tumor, and drug treatment was initiated on day one intraperitoneally or intravenously after tumor cell inoculation. Antitumor efficacy was expressed in leukemic animals by the increase in median survival time, in the dose-range used, compared to controls. Dead animals were autopsied and toxicity was established on the basis of macroscopic necropsy findings.

Row | SMILES | efficiency of entrapment in liposomes [1] | peak plasma concentration (doxorubicin) [2] [µg/mL] | peak drug concentration in the kidney [3] [µg/gm] | mortality [4] [%] | T/c (%) ([5]; 15 mg/kg i.p.) | T/c (%) ([5]; 20 mg/kg i.p.) | T/c (%) ([5]; 2 mg/kg i.p.) | T/c (%) ([5]; 4 mg/kg i.p.) | T/c (%) ([5]; 6 mg/kg i.p.) | T/c (%) ([5]; 6 mg/kg i.p., listed as daunorubicin) | T/c (%) ([5]; 15 mg/kg l.v) | T/c (%) ([5]; 20 mg/kg i.v.)
1 | COc1cccc2c1C(=O)c1c(O)c3c(c(O)c1C2=O)C[C@@](O)(C(=O)CO)C[C@@H]3O[C@H]1C[C@H](N)[C@H](O)[C@H](C)O1 [Free Doxorubicin, doxorubicin] | 65-75% | 2.4 | 41.0 | 100 | 130 | 100 |  |  |  |  |  | 
2 | COc1cccc2c1C(=O)c1c(O)c3c(c(O)c1C2=O)C[C@@](O)(C(C)=O)C[C@@H]3O[C@H]1C[C@H](N)[C@H](O)[C@H](C)O1 [Free Daunorubicin, daunorubicin] | 75-85% |  |  |  |  |  | 145.5 | 136.4 | 109.1 | 109 | 145.5 | 154.5
